The values that follow come from US9433211B2, “Antimicrobial agent” (TAIYO CORPORATION, priority 2012, dated 2016).

In brackets after ≈: the same amount, converted by molar mass.

In series [1] the test system is black mold (A. niger, JCM10254). Briefly: Verification test of antimicrobial effects (minimum inhibitory concentration) on black mold. The class given is cell-based. To be noted: for Minimum inhibitory concentration / MIC: A. niger, cultured at 30° C. aerobic four days, visual turbidity, 156-2500 ppm tested; for MIC: Aspergillus niger, JCM10254, 96 h; for antimicrobial activities, comparison in words: against black mold (A. niger), from the results in Table 1. On the procedure:
(§1) 0.5 ml of a previously sterilized culture medium (trade name “Potato dextrose liquid culture medium”, made by Nissui Pharmaceutical Co., Ltd. was placed into a 96-well deep type microplate, then the propanediol mono-β-hydroxycarboxylic acid esters (the present invention products 1 to 10), the glycerin mono β-hydroxydecanoic acid ester (comparative product 1), the β-hydroxydecanoic acid potassium (comparative product 2) prepared in the above descriptions of (1) to (5) as well as 1,2-octanediol (comparative product 3), 1,2-propanediol (comparative product 4) and 1,3-propanediol (comparative product 5) known as an auxiliary antiseptic agent for external preparations for skin were respectively added, and the culture medium was diluted in a step-wise manner so that the final concentration in the medium was 156 ppm, 312 ppm, 625 ppm, 1250 ppm, and 2500 ppm to prepare sample solutions.
(§2) To these sample solutions, 0.1 ml of each culture solution of blackmold (A. niger, JCM10254) and yeast (C. albicans, NBRC1594) at approximately 1×10^6 CFU/ml were added, and the solutions were cultured at 30° C. under an aerobic condition for four days. Antimicrobial effects were visually determined. The solutions were compared with test areas in which the above microorganisms had not been added. Test areas in which no turbidity due to growth of the microorganism was observed were determined to have antimicrobial effects, and the lowest concentration necessary for inhibiting the growth of the microorganism (hereinafter referred to as “minimum inhibitory concentration”) was measured.

For series [2], the system named is yeast (C. albicans, NBRC1594). The series is described as follows: Verification test of antimicrobial effects (minimum inhibitory concentration) on yeast. The class given is cell-based. To be noted: for Minimum inhibitory concentration / MIC: C. albicans, cultured at 30° C. aerobic four days, visual turbidity, 156-2500 ppm tested; for MIC: 96 h; for antimicrobial activities, comparison in words: against yeast (C. albicans), from the results in Table 1. On the procedure:
as §1, §2

A short description of series [3]: Compounding property in cosmetic, pharmaceutical and industrial formulations. Format: physicochemical. To be noted: 0.30 weight %. On the procedure: Glycerin, DPG, POE (60) hydrogenated castor oil, and 1,3-propanediol mono-β-hydroxydecanoic acid ester were mixed and dissolved by being heated to 70° C. (the resulting mixture was referred to as a mixture A). On the other hand, citrate acid Na, citric acid, glycine, alanine, hyaluronic acid Na, and water were individually mixed at room temperature (the resulting mixture was referred to as a mixture B). Then, the mixture A and the mixture B were combined and mixed at 50° C., and thus a lotion was obtained.
Cetanol, squalane, stearic acid, γ-tocopherol, BHT, polyethylene glycol monostearate (25EO), glycerin stearic acid monoester, and 1,3-propanediol mono-β-hydroxydecanoic acid ester were individually mixed and dissolved by being heated to 70° C. (the resulting mixture was referred to as a mixture A). On the other hand, 1,3-butanediol, carboxy vinyl polymer, and potassium hydroxide were individually mixed at room temperature (the resulting mixture was referred to as a mixture B). Then, the mixture A and the mixture B were combined and heated to 60° C. and were vigorously stirred and emulsified while being gradually added in small quantities to the purified water, and thus a milky lotion was obtained.
With regard to the compounding example 6, pantothenic acid, hyaluronic acid, thioxolone, hydrocortisone acetate, tocopherol, and minoxidil were mixed individually and dissolved by being heated to 70° C. (the resulting mixture was referred to as a mixture A). On the other hand, glycerin, polyoxyethylene glycol monoether, ethanol, and the present invention product 8 (1,3-propanediol mono-β-hydroxydecanoic acid ester) were mixed at room temperature (the resulting mixture was referred to as a mixture B). Then, the mixture A and the mixture B were combined and heated to 70° C. and were vigorously stirred while being added gradually in small quantities to water, and thus a hair growth liquid was obtained.
In preparing the compounding example 11, polyoxyethylene nonylphenylether, polyoxyethylene sorbitan monosterate, BHT, and fragrant material were mixed individually and dissolved by being heated to 80° C. (the resulting mixture was referred to as a mixture A). On the other hand, gellan gum, propylene glycol, the present invention product 8 (1,3-propanediol mono-β-hydroxydecanoic acid ester), and water were mixed at 80° C. (the resulting mixture was referred to as a mixture B). Then, the mixture B was gradually added in small quantities to the mixture A, heated to 80° C., and were vigorously stirred, and thus a transparent aqueous aromatic agent for vehicles was obtained.

Setting [4] is: hair growth liquid (compounding example 6).
Where [5] appears, read: transparent aqueous aromatic agent for vehicles (compounding example 11).

As for `CCCCCCCC(O)CC(=O)OCC(O)CO` (stereo not drawn) [Comparative product 1, glycerin mono β-hydroxydecanoic acid ester, reference compound], the Minimum inhibitory concentration in series [1] was 2500 ppm; in series [2], more than 2500 ppm.
A word on the MIC: it is the lowest concentration found to suppress growth. For `CCCCCCCC(O)CC(=O)O.[K]` (stereo not drawn) [Comparative product 2, β-hydroxydecanoic acid potassium, reference compound], the MIC in series [1] was determined as 1250 µg/mL; in series [2], 2500 µg/mL.
The like results for `CCCCCCC(O)CO` (stereo not shown) [Comparative product 3, 1,2-octanediol, reference compound] were, in that order, 2500 µg/mL (≈ 17100 µM) and 2500 µg/mL (≈ 17100 µM).
As to `CC(O)CO` (stereo not shown) [Comparative product 4, 1,2-propanediol, reference compound], in series [1], the Minimum inhibitory concentration was more than 2500 ppm and the “antimicrobial activities, comparison in words” value (from here on “antimicrobial activities”) is listed as “lower antimicrobial activities”. Also, in series [2], the Minimum inhibitory concentration is more than 2500 ppm and the “antimicrobial activities” value is “lower antimicrobial activities”.
Consider `OCCCO` [Comparative product 5, 1,3-propanediol, reference compound], for which the Minimum inhibitory concentration in series [1] and in series [2] was more than 2500 ppm each time. Besides, the “antimicrobial activities” value in series [1] and in series [2] was “lower antimicrobial activities” throughout.
Regarding `CCCCCCCCCC(O)CC(=O)OCC(C)O` (stereo not drawn) [Present invention product 1, 1,2-propanediol mono-β-hydroxydodecanoic acid ester], the minimum inhibitory concentration (MIC) in series [1] and in series [2] was 312 µg/mL (≈ 1140 µM) each time.
With `CCCCCCCCC(O)CC(=O)OCC(C)O` (stereo not drawn) [Present invention product 2, 1,2-propanediol mono-β-hydroxyundecanoic acid ester], the MIC in series [1] and in series [2] was 312 µg/mL (≈ 1200 µM) in each case.
On to `CCCCCCCC(O)CC(=O)OCC(C)O` (stereo not drawn) [Present invention product 3, 1,2-propanediol mono-β-hydroxydecanoic acid ester], for which, in series [1], inhibition of growth (MIC) required 312 µg/mL (≈ 1270 µM) and the “antimicrobial activities” value was “very stronger antimicrobial activities”. Besides, in series [2], it took 625 µg/mL (≈ 2540 µM) to inhibit growth (MIC) and the “antimicrobial activities” value was “very stronger antimicrobial activities”.
Take `CCCCCCC(O)CC(=O)OCC(C)O` (stereo not drawn) [Present invention product 4, 1,2-propanediol mono-β-hydroxynonanoic acid ester]: the Minimum inhibitory concentration in series [1] and in series [2] was 1250 ppm each time.
Consider `CCCCCC(O)CC(=O)OCC(C)O` (stereo not drawn) [Present invention product 5, 1,2-propanediol mono-β-hydroxyoctanoic acid ester], for which the Minimum inhibitory concentration is recorded as 2500 ppm in series [1] and more than 2500 ppm in series [2]. Further, the “antimicrobial activities” value in series [2] is on record as “lower than 1,2-octanediol”.
For the compound `CCCCCCCCCC(O)CC(=O)OCCCO` (stereo not drawn) [Present invention product 6, 1,3-propanediol mono-β-hydroxydodecanoic acid ester], the MIC in series [1] was 156 µg/mL (≈ 569 µM); in series [2], 312 µg/mL (≈ 1140 µM).
`CCCCCCCCC(O)CC(=O)OCCCO` (stereo not drawn) [Present invention product 7, 1,3-propanediol mono-β-hydroxyundecanoic acid ester]: the minimal inhibitory concentration (MIC) in series [1] and in series [2] was 312 µg/mL (≈ 1200 µM) throughout.
Regarding `CCCCCCCC(O)CC(=O)OCCCO` (stereo not drawn) [Present invention product 8, 1,3-propanediol mono-β-hydroxydecanoic acid ester], the MIC in series [1] came to 312 µg/mL (≈ 1270 µM); in series [2], 625 µg/mL (≈ 2540 µM). Also, the “antimicrobial activities” value in series [1] and in series [2] was “very stronger antimicrobial activities” each time. Further, the “compounding property: mixing with other components” value in series [3] (setting [4]), in series [3] (lotion) and in series [3] (setting [5]) was “easily mixed with other components” each time. For the same compound, the “compounding property: turbidity or precipitation in the obtained product” value in series [3] (setting [4]), in series [3] (lotion) and in series [3] (setting [5]) was “not found” in each case.
`CCCCCCC(O)CC(=O)OCCCO` (stereo not drawn) [Present invention product 9, 1,3-propanediol mono-β-hydroxynonanoic acid ester]: the Minimum inhibitory concentration in series [1] and in series [2] was 1250 ppm in each case.
Regarding `CCCCCC(O)CC(=O)OCCCO` (stereo not drawn) [Present invention product 10, 1,3-propanediol mono-β-hydroxyoctanoic acid ester], the Minimum inhibitory concentration in series [1] is given as 2500 ppm; in series [2], more than 2500 ppm. Moreover, in series [2], the “antimicrobial activities” value is reported as “lower than 1,2-octanediol”.
